The target of one data set is T1, human EAAT3 (Homo sapiens, UniProt P43005).
T1 construct: expressed in transfected cells
T1 sequence (P43005 1-524): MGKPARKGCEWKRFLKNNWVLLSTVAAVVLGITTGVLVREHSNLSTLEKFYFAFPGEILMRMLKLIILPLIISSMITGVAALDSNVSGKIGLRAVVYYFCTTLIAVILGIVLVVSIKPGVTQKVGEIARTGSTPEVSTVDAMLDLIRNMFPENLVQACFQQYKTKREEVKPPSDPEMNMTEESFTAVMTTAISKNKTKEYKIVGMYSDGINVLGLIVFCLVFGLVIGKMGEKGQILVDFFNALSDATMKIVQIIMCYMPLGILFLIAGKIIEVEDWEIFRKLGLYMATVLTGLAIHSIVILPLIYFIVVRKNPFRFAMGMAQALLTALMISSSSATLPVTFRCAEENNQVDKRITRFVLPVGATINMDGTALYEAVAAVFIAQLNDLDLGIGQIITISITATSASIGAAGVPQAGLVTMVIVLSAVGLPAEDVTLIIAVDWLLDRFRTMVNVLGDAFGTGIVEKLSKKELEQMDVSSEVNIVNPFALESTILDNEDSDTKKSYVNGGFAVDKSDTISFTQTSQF
Put plainly: FLIPR Membrane Potential (FMP) assay, antagonist potency at human EAAT3. The format is cell-based. The note with it: HEK-293 cells stably expressing human EAAT3; L-glutamate as agonist at EC80; antagonist applied 15 min before agonist; Kb by Cheng-Prusoff from IC50. The method, then:
The FLIPR Membrane Potential (FMP) Assay
HEK-293 cells stably expressing human EAAT3 were seeded at 55 000 cells/well in growth medium (DMEM glutamate free (Invitrogen 11960-044), 1% Pen Strep (10 ml/1 GIBCO BRL N°15140-023), 10% FCS non dialysed heat inactivated, 5 mg/l puromycin) in poly-D-lysine treated 96-well black microtiter plates with clear-bottom. After 24 h, the growth medium was removed and 100 μl/well of Krebs buffer (140 mM NaCl, 4.7 mM KCl, 2.5 mM CaCl2, 1.2 mM MgCl2, 11 mM HEPES, 10 mM D-glucose, pH=7.4) added. The cells were then loaded by adding 100 μl/well FMP assay dye (FLIPR Membrane Potential assay reagent, Molecular Devices). The 96-well plates were then incubated at 37° C. for 1 h. The depolarization of the cells will cause more dye to enter in the cells, where it will bind to intracellular proteins and lipids and cause an increase in the fluorescence signal. Antagonist potency at human EAAT3 was determined by using L-glutamate as agonist at a concentration which gives 80% of the maximum response. The antagonists were applied 15 min before the application of the agonist L-glutamate. The assays were performed at room temperature and measurements done by using a Fluorometric Imaging Plate Reader (FLIPR, Molecular Devices) and filter #2. Responses were measured as peak increase in fluorescence minus basal (i.e. fluorescence without addition of L-glutamate). Kb was determined using the Cheng-Prusoff equation Kb=IC50/[1+(A/EC50)], where IC50 is the concentration of the antagonist producing 50% inhibition, A is the concentration of the agonist against which the IC50 is being determined (at EC80) and EC50 is the concentration of the agonist producing 50% […].

The structures appear in SMILES notation.

As for `CC(C)c1nccn1-c1cc(C(=O)NC(C)(C)C)cc(-c2ccc(F)c(F)c2)c1` [Example 23, N-tert-Butyl-3-(3,4-difluorophenyl)-5-(2-propan-2-ylimidazol-1-yl)-benzamide], the melting point – broadly, the temperature, or range, at which the solid turns liquid – amounted to 91.5 °C. The Kb (as a rule, the affinity of an antagonist, worked out from how it opposes an agonist) at human EAAT3 turned out to be 150 nM.

`CC(C)c1nccn1-c1cc(C(=O)NC(C)(C)C)cc(-c2ccc(Cl)c(F)c2)c1` [Example 24, N-tert-Butyl-3-(4-chloro-3-fluorophenyl)-5-(2-propan-2-ylimidazol-1-yl)-benzamide] came in with a melting point of 98 °C. The compound also displayed a Kb on human EAAT3 of 190 nM.

Take `CC(C)c1nccn1-c1cc(C(=O)NC(C)(C)C)cc(-c2ccc(C3CC3)cc2)c1` [Example 25, N-tert-Butyl-3-(4-cyclopropylphenyl)-5-(2-propan-2-ylimidazol-1-yl)-benzamide]: the melting point is 95 °C. The compound also came in with a Kb at human EAAT3 of 210 nM.

Turning to `Cc1ccc(-c2cc(C(=O)NC(C)(C)C)cc(-n3ccnc3C(C)C)c2)cc1` [Example 26, N-tert-Butyl-3-(4-methylphenyl)-5-(2-propan-2-ylimidazol-1-yl)-benzamide], the melting point is 104 °C. The compound further had a Kb at human EAAT3 of 130 nM.

Compound `Cc1cc(-c2cc(C(=O)NC(C)(C)C)cc(-n3ccnc3C(C)C)c2)ccc1F` [Example 27, N-tert-Butyl-3-(4-fluoro-3-methylphenyl)-5-(2-propan-2-ylimidazol-1-yl)-benzamide] displayed a melting point of 98.5 °C. Moreover, the Kb at human EAAT3 turned out to be 280 nM.

`CC(C)(C)NC(=O)c1cc(-c2ccc(Cl)cc2)cc(-n2ccnc2C(C)(C)C)c1` [Example 28, N-tert-Butyl-3-(2-tert-butylimidazol-1-yl)-5-(4-chlorophenyl)-benzamide] showed a melting point of 101 °C. In addition, at human EAAT3, the Kb came to 160 nM.

As for `CC(C)(C)NC(=O)c1cc(-c2ccc(Cl)cc2)cc(-n2ccnc2CO)c1` [Example 29, N-tert-Butyl-3-(4-chlorophenyl)-5-[2-(hydroxymethyl)-imidazol-1-yl]-benzamide], the melting point was 114 °C. At human EAAT3, the Kb amounted to 150 nM.

`CCC(C)(C)NC(=O)c1cc(-c2ccc(Cl)cc2)cc(-n2ccnc2CO)c1` [Example 30, 3-(4-Chlorophenyl)-5-[2-(hydroxymethyl)-imidazol-1-yl]-N-(2-methylbutan-2-yl)-benzamide] returned a melting point of 76 °C. At human EAAT3, this compound displayed a Kb of 160 nM.

`CCC(C)(C)NC(=O)c1cc(-c2ccc(Cl)cc2)cc(-n2ccnc2C(C)(C)C)c1` [Example 31, 3-(2-tert-Butylimidazol-1-yl)-5-(4-chlorophenyl)-N-(2-methylbutan-2-yl)-benzamide] registered a melting point of 189.5 °C. Besides, the Kb at human EAAT3 was found to be 410 nM.

For `CC(C)(C)NC(=O)c1cc(-c2ccc(F)cc2)cc(-n2ccnc2C(C)(C)C)c1` [Example 32, N-tert-Butyl-3-(2-tert-butylimidazol-1-yl)-5-(4-fluorophenyl)-benzamide], the melting point came to 218 °C. In addition, the Kb at human EAAT3 was 180 nM.

Take `CC(C)(C)NC(=O)c1cc(-c2ccc(C(F)(F)F)cc2)cc(-n2ccnc2C(C)(C)C)c1` [Example 33, N-tert-Butyl-3-(2-tert-butylimidazol-1-yl)-5-[4-(trifluoromethyl)-phenyl]-benzamide]: the melting point was found to be 225 °C. The Kb at human EAAT3 came to 290 nM.

The compound `CC(C)(C)NC(=O)c1cc(-c2ccc(F)cc2)cc(-n2ccnc2C(C)(C)O)c1` [Example 34, N-tert-Butyl-3-(4-fluorophenyl)-5-[2-(2-hydroxypropan-2-yl)-imidazol-1-yl]-benzamide] came in with a melting point of 183 °C. At human EAAT3, this compound showed a Kb of 100 nM.

Turning to `CC(C)(C)NC(=O)c1cc(-c2ccc(C(F)(F)F)cc2)cc(-n2ccnc2C(C)(C)O)c1` [Example 35, N-tert-Butyl-3-[2-(2-hydroxypropan-2-yl)-imidazol-1-yl]-5-[4-(trifluoromethyl)-phenyl]-benzamide], the melting point came to 173.5 °C. In addition, the Kb on human EAAT3 was 210 nM.

For `CCC(C)(C)NC(=O)c1cc(-c2ccc(Cl)cc2)cc(-n2ccnc2C(C)C)c1` [Example 36, 3-(4-Chlorophenyl)-N-(2-methylbutan-2-yl)-5-(2-propan-2-ylimidazol-1-yl)-benzamide], the melting point was found to be 87 °C. This compound also showed a Kb on human EAAT3 of 330 nM.

Take `CCC(C)(C)NC(=O)c1cc(-c2ccc(Cl)cc2)cc(-n2ccnc2C2CC2)c1` [Example 37, 3-(4-Chlorophenyl)-5-(2-cyclopropylimidazol-1-yl)-N-(2-methylbutan-2-yl)-benzamide]: the melting point is 85 °C. On human EAAT3, this compound came in with a Kb of 170 nM.

In the case of `CC(C)(C)NC(=O)c1cc(-c2ccc(Cl)cc2)cc(-n2ccnc2C(C)(C)O)c1` [Example 40, N-tert-Butyl-3-(4-chlorophenyl)-5-[2-(2-hydroxypropan-2-yl)-imidazol-1-yl]-benzamide], the melting point came out at 78 °C. Besides, the Kb on human EAAT3 came to 70 nM.

Compound `CC(C)c1nccn1-c1cc(C(=O)NC(C)(C)CO)cc(-c2ccc(Cl)cc2)c1` [Example 41, 3-(4-Chlorophenyl)-N-(1-hydroxy-2-methylpropan-2-yl)-5-(2-propan-2-yl-imidazol-1-yl)-benzamide] yielded a melting point of 97 °C. Further, at human EAAT3, the Kb stood at 540 nM.

The compound `CC(C)(CO)NC(=O)c1cc(-c2ccc(Cl)cc2)cc(-n2ccnc2C2CC2)c1` [Example 42, 3-(4-Chlorophenyl)-5-(2-cyclopropylimidazol-1-yl)-N-(1-hydroxy-2-methylpropan-2-yl)-benzamide] displayed a melting point of 99 °C. This compound also displayed a Kb at human EAAT3 of 170 nM.

With `CC(C)(CO)NC(=O)c1cc(-c2ccc(Cl)cc2)cc(-n2ccnc2C(C)(C)C)c1` [Example 43, 3-(2-tert-Butylimidazol-1-yl)-5-(4-chlorophenyl)-N-(1-hydroxy-2-methylpropan-2-yl)-benzamide], the melting point turned out to be 234 °C. This compound had a Kb at human EAAT3 of 80 nM.

Values taken from US10029989B2, “Imidazole derivatives” (Hoffmann-La Roche Inc., priority 2015, dated 2018).
